In patent US8575382B2, “Low molecular weight pharmacological activity modulators” (“Ivy Pharm” LLC, priority 2009, dated 2013):
Where two headings read alike, the source gives them in different places.

Tests used:
[1] = tested on: mice with hyperglycemia caused by glucose; test: Glucose loading test, blood sugar level; format: in vivo
Description: the glucose loading test (reduction in the sugar content in animals with hyperglycemia, caused by administration of glucose when fasting); Blood was obtained after 1 h by caudal vein puncture and the serum glucose level was determined by the ortho-toluidine method. Experiments to study the effect of the test substances on the blood glucose level were carried out on white mice weighing 17-18 g. The animals were deprived of food from the evening prior to the experiment. […] Immediately after injecting the glucose, the experimental animals were injected subcutaneously with a reference preparation (insulin in a dose of 0.3 units/kg). […] The blood glucose level was determined over a period of 4 hours with intervals of 1 hour.

[2] = tested on: white rats with experimental diabetes; test: Alloxan diabetes model; format: in vivo; conditions: for Cholesterol / Glucose / Total lipids / Triglycerides / β-lipoproteins: blood serum; for Body weight / Daily water consumption / Percent living: intragastrically once daily
Description: the alloxan diabetes model (reduction in the sugar content in the conditions of experimental chronic insulin insufficiency).
The alloxan diabetes model was used in another series of experiments. Alloxan diabetes was induced by a single subcutaneous injection of alloxan hydrate (Chemapol, Czech Republic) in a dose of 100 mg/kg in rats weighing 180-200 g which had fasted for 24 hours. The following groups of animals were studied: intact rats, untreated rats with diabetes, and animals with diabetes which were given thioctic acid daily for 1 month in a dose of 100 mg/kg, and thioctic acid in combination with the coordination compound in a dose of 10 mg/kg intragastrically once daily. Administration of the preparations commenced after 7 days, when the blood glucose level had roughly doubled as compared with the control. Each group contained 20 animals of both sexes. The general condition of the animals, the demand for food and water, the body weight, and the blood serum levels of glucose, total lipids, triglycerides, lipoproteins and cholesterol were recorded in the course of the experiment. […]

[3] = tested on: myocardium (30-minute LCA occlusion, 90-minute reperfusion)
Description: The experiments were performed on male Wistar rats weighing 200-300 g (RAMN Rappolovo Breeding Centre, St. Petersburg) and male C57B mice weighing 25-30 g (B&K, Sollentuna, Sweden). The animals were maintained in a 12/12-hour light regime and received standard feed and drinking water ad libitum. All the experiments were conducted in accordance with the “Handbook on the care and use of laboratory animals” (USA National Institute of Health publication No. 85-23) and “Handbook on the experimental (preclinical) study of new pharmacological substances”.
Initial anesthesia of rats was performed by intraperitoneal administration of etaminal sodium (Nembutal) in a single dose of 7 mg/100 g. The experiments were performed with artificial ventilation of the lungs AVL) via a tracheotomy (respiration rate—60/min, respiratory volume—3 ml/100 g of body weight). AVL was carried out with room air using a Vita-1 unit (PO Krasnogvardeyets, St. Petersburg). A breathing valve for small laboratory animals was used, allowing the dead space volume of the apparatus to be reduced and limiting accumulation of carbon dioxide in the flow system of the apparatus. Arterial pressure (AP) was measured during the experiment using a miniature pressure sensor (Baxter, USA) via a heparinized catheter inserted into the left common carotid artery. A median skin incision was made in the neck, with subsequent blunt separation of the tissues with forceps, for access to the trachea and carotid artery. An electrocardiogram (ECG) was recorded in the course of the experiment (Kardiotekhnika-EKG-8, ZAO Inkart, St. Petersburg) with standard leads, using subcutaneous needle electrodes 2 mm in diameter and 25 mm long. At the start of the experiment, the left femoral vein was catheterized for intravenous infusion of Nembutal with the object of maintaining anesthesia and also for the administration of test preparations and, at the end of the experiment, Evans blue.
A previously described method was used to model ischemia-reperfusion of the myocardium. The heart was accessed via a thoracotomy in the fourth intercostal on the left. An L-shaped skin incision was made first, then the large and small pectoral muscles were separated layer by layer with an electrocoagulator, after which the intercostal muscles were separated and the pleura was exposed. The pericardium was then opened by a blunt method and, using the medial edge of the auricula of the left atrium on the left, and the cone of the pulmonary artery on the right, for guidance the location of the common trunk of the LCA was determined, and a polypropylene ligature for this was placed with the aid of an atraumatic needle (6-O, Cardiopoint, CV-301). Removal of the heart from the wound was avoided since, apart from causing mechanical trauma to the heart, such a manipulation inevitably leads to serious disturbances to the hemodynamics.
An occluder was formed in order to create reversible ischemia of the myocardium: the ends of the ligature surrounding the coronary artery were led into the interior of a polyethylene tube 1 mm in diameter and 5-6 cm long (PE 40), after which occlusion of the left coronary artery (LCA) was achieved by moving the tube towards the heart, and reperfusion by moving it in the opposite direction. A clamp was applied to the tube with the object of maintaining occlusion for 30 minutes. The animals were located on a thermostatted operating table during the experiment; during this time, the body temperature of the animal was maintained in the range 37.5±0.5° C.
30-minute occlusion of the LCA with subsequent 90-minute reperfusion was used to create irreversible ischemic-reperfusion damage to the myocardium, which is a test for assessing cardioprotective effects.

[4] = tested on: A431 line human epidermoid carcinoma cells; test: Proliferative activity and death of A431 cells (cell count, propidium iodide flow cytofluorimetry); format: cell-based; conditions: for Proportion of dead cells / Total cells: A431, EGF 200 ng/ml
Description: The number of living and dead cells in a culture was determined after 24 and 48 hours.
A431 line human epidermoid carcinoma cells, obtained from the All-Russian Cell Culture Collection (Russian Academy of Sciences Institute of Cytology, St. Petersburg).
Cells are cultured in a CO2 incubator (New Brunswick Scientific) at +37° C. and with a CO2 content of 5%. Cells are grown in these conditions to a monolayer culture and are exposed to the action of the test compounds.
The DMEM medium (OOO PanEko, Moscow) with the addition of gentamicin K (80 mg/l), L-glutamine (300 mg/l) and fetal serum (PAA, Austria) to a final concentration of 10%, is used for culturing cells. Cells are transferred to a medium with a reduced serum content of 0.5% 24 hours before commencing an experiment.
The cells were then suspended by pipetting with an automatic pipette and were combined with the previously collected medium. Samples were centrifuged at room temperature for 5 min at 400 g, the supernatant was removed and the deposit was resuspended in pH 7.4 PBS phosphate-salt buffer.
Propidium iodide was added to a suspension of cells to a concentration of 50 μg/ml 5-10 min before measuring in a Bruker ACR 1000 flow cytofluorimeter. This stain is able to penetrate through a damaged cell membrane, and stained cells are dead.

[5] = Table 2, age of culture 24 hours, cysteine […], C—Pd […], C—Pd:C […]
[6] = Table 2, age of culture 48 hours, cysteine […], C—Pd […], C—Pd:C […]

## O=C(O)CCCCC1CCSS1 (centres unmarked) [Thioctic acid, thioctic acid]
[1]; 5.5 mg/kg intramuscularly, 1 hour
  Blood sugar level: 4.3 ± 0.2 mmol/L
[1]; 5.5 mg/kg intramuscularly, 2 hours
  Blood sugar level: 4.0 ± 0.2 mmol/L
[1]; 5.5 mg/kg intramuscularly, 3 hours
  Blood sugar level: 4.4 ± 0.3 mmol/L
[1]; 5.5 mg/kg intramuscularly, 4 hours
  Blood sugar level: 4.1 ± 0.1 mmol/L
[1]; 11 mg/kg intramuscularly, 1 hour
  Blood sugar level: 4.5 ± 0.2 mmol/L
[1]; 11 mg/kg intramuscularly, 2 hours
  Blood sugar level: 4.2 ± 0.2 mmol/L
[1]; 11 mg/kg intramuscularly, 3 hours
  Blood sugar level: 4.2 ± 0.3 mmol/L
[1]; 11 mg/kg intramuscularly, 4 hours
  Blood sugar level: 4.2 ± 0.1 mmol/L
[1]; 100 mg/kg intramuscularly, 1 hour
  Blood sugar level: 3.0 ± 0.3 mmol/L
[1]; 100 mg/kg intramuscularly, 2 hours
  Blood sugar level: 2.8 ± 0.1 mmol/L
[1]; 100 mg/kg intramuscularly, 3 hours
  Blood sugar level: 2.5 ± 0.1 mmol/L
[1]; 100 mg/kg intramuscularly, 4 hours
  Blood sugar level: 2.4 ± 0.3 mmol/L
[1]; 200 mg/kg intramuscularly, 1 hour
  Blood sugar level: 2.7 ± 0.2 mmol/L
[1]; 200 mg/kg intramuscularly, 2 hours
  Blood sugar level: 2.6 ± 0.3 mmol/L
[1]; 200 mg/kg intramuscularly, 3 hours
  Blood sugar level: 2.3 ± 0.2 mmol/L
[1]; 200 mg/kg intramuscularly, 4 hours
  Blood sugar level: 2.1 ± 0.2 mmol/L
[1]; doses of 5.5 and 11 mg/kg, without the coordination compound
  hypoglycemizing effect (in words): did not exhibit a hypoglycemizing effect
[2]; 14 days
  Cholesterol: 2.4 ± 0.2 mmol/L
  Glucose: 5.2 ± 0.2 mmol/L
  Total lipids: 10.4 ± 0.5 g/L
  Triglycerides: 2.3 ± 0.2 mmol/L
  β-lipoproteins: 2.1 ± 0.2 g/L
  Body weight: 180 ± 10 g
  Daily water consumption: 25 ± 5
  Percent living: 100%
[2]; 20 days
  Cholesterol: 1.4 ± 0.2 mmol/L
  Glucose: 4.8 ± 0.1 mmol/L
  Total lipids: 10.2 ± 0.3 g/L
  Triglycerides: 1.5 ± 0.2 mmol/L
  β-lipoproteins: 2.1 ± 0.3 g/L
  Body weight: 185 ± 10 g
  Daily water consumption: 22 ± 5
  Percent living: 100%
[2]; 30 days
  Cholesterol: 1.4 ± 0.1 mmol/L
  Glucose: 4.6 ± 0.2 mmol/L
  Total lipids: 9.5 ± 0.2 g/L
  Triglycerides: 1.4 ± 0.2 mmol/L
  β-lipoproteins: 2.1 ± 0.3 g/L
  Body weight: 195 ± 10 g
  Daily water consumption: 20 ± 3
  Percent living: 100%

## Insulin: reference preparation
[1]; insulin 0.3 units/kg subcutaneously, 1 hour
  Blood sugar level: 1.2 ± 0.1 mmol/L
[1]; insulin 0.3 units/kg subcutaneously, 2 hours
  Blood sugar level: 1.4 ± 0.1 mmol/L
[1]; insulin 0.3 units/kg subcutaneously, 3 hours
  Blood sugar level: 1.6 ± 0.2 mmol/L
[1]; insulin 0.3 units/kg subcutaneously, 4 hours
  Blood sugar level: 2.0 ± 0.1 mmol/L

## Nc1ncnc2c1ncn2[C@@H]1O[C@H](CO)[C@@H](O)[C@H]1O [adenosine]
[3]; rat, in vivo
  disturbances of the heart rhythm or stopping of the heart: No disturbances of the heart rhythm or stopping of the heart
[3]; rats, adenosine 0.1 μmol/kg i.v. infusion 30 minutes before coronary occlusion (group 1)
  size of the infarct zone, % of the size of the anatomical risk zone: 64.7±3.47%
[3]; rats, adenosine 0.25 μmol/kg i.v. 30 minutes before occlusion (group 2)
  size of the infarct zone, % of the size of the anatomical risk zone: 63.1±4.31%
[3]; rats, adenosine 0.5 μmol/kg i.v. 30 minutes before occlusion (group 3)
  size of the infarct zone, % of the size of the anatomical risk zone: 62.7±4.11%
[3]; rats, adenosine 1.0 μmol/kg i.v. 30 minutes before occlusion (group 4)
  size of the infarct zone, % of the size of the anatomical risk zone: 65.1±4.84%
[3]; rats, adenosine 2.5 μmol/kg i.v. 30 minutes before occlusion (group 5)
  size of the infarct zone, % of the size of the anatomical risk zone: 60.9±5.10%
[3]; rats, adenosine 5.0 μmol/kg i.v. 30 minutes before occlusion (group 6)
  size of the infarct zone, % of the size of the anatomical risk zone: 35.9±3.59%
[3]; rats, adenosine 10.0 μmol/kg i.v. 30 minutes before occlusion (group 7)
  size of the infarct zone, % of the size of the anatomical risk zone: 32.7±3.21%
[3]; rats, adenosine 25.0 μmol/kg i.v. 30 minutes before occlusion (group 8)
  size of the infarct zone, % of the size of the anatomical risk zone: 28.2±3.43%
[3]; rats, adenosine 50.0 μmol/kg i.v. 30 minutes before occlusion (group 9)
  size of the infarct zone, % of the size of the anatomical risk zone: 26.5±2.87%
[3]; rats, adenosine groups 6-9 (5.0-50.0 μmol/kg), control 63.8±3.32%
  reduction of the size of the infarct zone compared with the control, factor: 1.5-2.5

## Epidermal growth factor: physiological high-affinity ligand of the EGF receptor
[4]; [5]
  Proportion of dead cells: 19%
  Total cells: 47300 mL⁻¹
[4]; [6]
  Proportion of dead cells: 23%
  Total cells: 68800 mL⁻¹
[4]; Table 3, 24 hours
  Proportion of dead cells: 22%
  Total cells: 52000 mL⁻¹
[4]; Table 3, 48 hours
  Proportion of dead cells: 29%
  Total cells: 71700 mL⁻¹
[4]; summary of Table 2
  effect on the proliferative activity of A431 cells (in words): maximum stimulating effect
